# Data from PMC4476283 (Biochemistry, 2015).
# Marks after values point to notes of the source that are not given here.
# Experiments:
# [1] = system: OXA-24/40; conditions: ref Kaitany et al. [13], cited from earlier work; for Km: 50 mM NaH2PO4, 25 mM NaHCO3, pH 7.4, 25°C; for Ks (competition kinetics with ampicillin as reporter substrate): from IC50 by Cheng-Prusoff
# [2] = target: OXA-225 (OXA-23 P225S) (Acinetobacter baumannii, UniProt Q9L4P2, P225S); test: Steady-state kinetic analysis of β-lactam hydrolysis by OXA-225; format: biochemical; conditions: for kcat / Km / Ks (competition kinetics with ampicillin as reporter substrate): OXA-225; for Km: 50 mM NaH2PO4, 25 mM NaHCO3, pH 7.4, 25°C; for Ks (competition kinetics with ampicillin as reporter substrate): from IC50 by Cheng-Prusoff
# [3] = system: OXA-23; conditions: ref Kaitany et al. [13], cited from earlier work; for Km: 50 mM NaH2PO4, 25 mM NaHCO3, pH 7.4, 25°C; for Ks (competition kinetics with ampicillin as reporter substrate): from IC50 by Cheng-Prusoff
# [4] = system: OXA-160 (OXA-24/40 P227S); format: biochemical, Acinetobacter baumannii; conditions: for kcat / Km / Ks (competition kinetics with ampicillin as reporter substrate): OXA-160; for Km: 50 mM NaH2PO4, 25 mM NaHCO3, pH 7.4, 25°C; for Ks (competition kinetics with ampicillin as reporter substrate): from IC50 by Cheng-Prusoff
# [5] = system: A. baumannii strain that yielded OXA-160; conditions: A. baumannii strain from which OXA-160 was derived; cited from earlier work
# [6] = conversion of OXA-24/40 to OXA-160
Compound,Km [1],kcat [1],kcat [2],Km [2],gain (increase) in kcat/Km from the P→S substitution ([2]; OXA-225 compared to OXA-23),Km [3],kcat [3],kcat [4],Km [4],gain in kcat/Km from the P→S substitution ([4]; OXA-160 compared to OXA-24/40),MIC [5],hydrolytic activity (in words) [1],hydrolytic activity (in words) [3],Ks (competition kinetics with ampicillin as reporter substrate) [2],Ks (competition kinetics with ampicillin as reporter substrate) [1],Ks (competition kinetics with ampicillin as reporter substrate) [3],Ks (competition kinetics with ampicillin as reporter substrate) [4],"increase in kcat/Km [4, 6]","decrease in kcat/Km [4, 6]"
"CC1(C)S[C@@H]2[C@H](NC(=O)[C@H](N)c3ccccc3)C(=O)N2[C@H]1C(=O)O [Ampicillin, ampicillin]",180 ± 20 µM,480 ± 20 s⁻¹,150 ± 10 s⁻¹,12 ± 1 µM,~ 2 fold,82 ± 9 µM,460 ± 10 s⁻¹,93 ± 2 s⁻¹,13 ± 1 µM,~ 3 fold,,,,,,,,,
"C[C@H]1[C@H](NC(=O)/C(=N\OC(C)(C)C(=O)O)c2csc(N)n2)C(=O)N1S(=O)(=O)O [Aztreonam, aztreonam]",> 1500 µM,>0.3 s⁻¹,0.79 ± 0.03 s⁻¹,13 ± 2 µM,,2400 µM,0.24 ± 0.01 s⁻¹,2.7 ± 0.2 s⁻¹,,,128 µg/mL,,,,,,,,
"CO/N=C(\C(=O)N[C@@H]1C(=O)N2C(C(=O)O)=C(COC(C)=O)CS[C@H]12)c1csc(N)n1 [Cefotaxime, cefotaxime]",750 ± 70 µM,0.38 ± 0.01 s⁻¹,3.2 ± 0.2 s⁻¹,100 ± 20 µM,,340 ± 30 µM,5.5 ± 0.1 s⁻¹,0.41 ± 0.01 s⁻¹,170 ± 5 µM,,,,,,,,,,
"CC(C)(O/N=C(\C(=O)N[C@@H]1C(=O)N2C(C(=O)[O-])=C(C[n+]3ccccc3)CS[C@H]12)c1csc(N)n1)C(=O)O [Ceftazidime, ceftazidime]",,<0.02 s⁻¹,1.4 ± 0.1 s⁻¹,1400 µM,,,<0.02 s⁻¹,>0.80 s⁻¹,> 3000 µM,,,no activity,no activity,,,,,,
"CO/N=C(\C(=O)N[C@@H]1C(=O)N2C(C(=O)O)=C(CSc3nc(=O)c(=O)[nH]n3C)CS[C@H]12)c1csc(N)n1 [Ceftriaxone, ceftriaxone]",110 ± 10 µM,0.035 ± 0.001 s⁻¹,0.051 ± 0.002 s⁻¹,,,5.4 ± 0.5 µM,0.021 ± 0.001 s⁻¹,0.24 ± 0.01 s⁻¹,14 ± 0.8 µM,,,,,0.48 ± 0.05 ^b µM,,,,,
"C[C@@H](O)[C@H]1C(=O)N2C(C(=O)O)=C(S[C@@H]3CN[C@H](CNS(N)(=O)=O)C3)[C@H](C)[C@H]12 [Doripenem, doripenem]",,0.074 ± 0.001 s⁻¹,0.026 ± 0.002 s⁻¹,,,,0.028 ± 0.003 s⁻¹,0.064 ± 0.001 s⁻¹,,,,,,0.027 ± 0.005 ^b µM,0.024 ± 0.003 ^b µM,0.018 ± 0.002 ^b µM,0.014 ± 0.003 ^b µM,40%,
"C[C@@H](O)[C@H]1C(=O)N2C(C(=O)O)=C(SCCN=CN)C[C@H]12 [Imipenem, imipenem]",,2.1 ± 0.1 s⁻¹,0.39 ± 0.01 s⁻¹,,,,0.49 ± 0.01 s⁻¹,0.12 ± 0.01 s⁻¹,,,,,,0.20 ± 0.02 ^b µM,0.68 ± 0.09 ^b µM,0.20 ± 0.02 ^b µM,0.043 ± 0.005 ^b µM,,10%
CO/N=C(\C(=O)N[C@@H]1C(=O)N2C(C(=O)[O-])=C(C[N+]3(C)CCCC3)CS[C@H]12)c1csc(N)n1 [cefepime],,,,,,,,,,,64 µg/mL,,,,,,,,
C[C@@H](O)[C@H]1C(=O)N2C(C(=O)O)=C(S[C@@H]3CN[C@H](C(=O)N(C)C)C3)[C@H](C)[C@H]12 [meropenem],,,,,,,,,,,16 µg/mL,,,,,,,,
